71 compounds from PubChem BioAssay AID179 (DTP/NCI, 2004) can be followed below.

The test system of the assay is CEM cells HIV-1 protection, formazan growth assay. As to the kind of experiment: NCI AIDS Antiviral Assay. Particulars: for IC50: measured here: growth of uninfected CEM cells. A digest of the protocol:
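Steps: treat uninfected and HIV-1-infected human CEM cells at five drug levels; quantify growth by soluble formazan; retest any compound reaching 50% protection; classify actives from the retest.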

Several values for one entry are separate records, joined by “and”; a condition that tells them apart may be missing. Identical values can stand only once. Activity calls are given as the source filed them.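 The calls were made as follows: active = compounds giving half or more protection of infected cells from virus-caused growth loss, again on retest; inactive = the rest.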 Where a SMILES comes first, the peptide text is derived from it. The star is where a group is joined. OSu = O=C1CCC(=O)N1O*; Bn = c1ccc(C*)cc1 Bounds are passed on as bounds.

`CCN(CC(O)COc1ccc2c(c1)[n+]([O-])nc(N)[n+]2[O-])C(C)=O` (configuration not stated): the EC50 is greater than 200 µM and the IC50 was 23.4 µM.

Regarding `O=C1c2ccoc2C(=O)c2oc(=O)ccc21`, the EC50 is greater than 102 µM and the IC50 worked out at 5.75 µM.

Consider `C=C1[C@@H]2CC[C@@]3([C@@H](C2)[C@@]24CCC[C@@]5(C)CN(CCO)[C@@H]2O[C@@H]3C[C@H]54)[C@@H]1O`, for which the outcome was inactive.

`O=C1/C(=C/c2ccccc2Cl)Cc2ccccc21`: the EC50 is greater than 5.37 µM and the IC50 is greater than 5.37 µM.

On to `COc1ccc(S(=O)Cc2ccc(C(=O)O)cc2[N+](=O)[O-])cc1` (configuration not stated), for which the EC50 is greater than 741 µM and the IC50 was found to be 631 µM.

`COC(=O)N/N=c1\cc(C(=O)Nc2ccc(C)c(C)c2)oc2cc(O)ccc12`: the EC50 was greater than 661 µM and the concentration for half-maximal inhibition (IC50) was 575 µM.

With `O=C1CCC23CC(C=CC=C12)n1c(=O)n(-c2ccccc2)c(=O)n13` (configuration not stated), the EC50 is greater than 200 µM and the IC50 amounted to 34.7 µM.

On to `c1ccc2[nH]c(-c3nc4ccccc4o3)nc2c1`, for which the EC50 is greater than 15.8 µM and the IC50 was greater than 15.8 µM.

As to `N=C1N(c2ccccc2)C(N)(N)SSC(N)(N)N1c1ccccc1`, the EC50 is greater than 141 µM and the IC50 came out at 17.4 µM.

Consider `CC(C)(C=O)CC(C#N)/C(=N\NC(N)=O)C(=O)Nc1ccccc1C(N)=O` (configuration not stated), for which the EC50 was greater than 676 µM and the IC50 is greater than 676 µM.

As to `COc1ccc(Nc2nc3ccc(C(F)(F)F)cc3nc2C(=O)O)cc1`, the EC50 is greater than 200 µM and the IC50 is 20.4 µM.

For `COC(=O)C(CC12CC3CC(CC(C3)C1)C2)NC(=O)C(N)CC(=O)O` (configuration not stated), the EC50 is greater than 200 µM and the concentration for half-maximal inhibition (IC50) was greater than 200 µM.

For the compound `O=[N+]([O-])c1ccc(Cl)c(SSc2cc([N+](=O)[O-])ccc2Cl)c1`, the EC50 is greater than 39.8 µM and the 50% inhibitory concentration (IC50) is 14.1 µM.

With `C=CCC1(OC(C)=O)C2OC(=O)C1(O)OCC2O` (configuration not stated), the EC50 is greater than 200 µM and the IC50 is greater than 200 µM.

`CCC1=NC(N/N=C/c2ccco2)=N/C1=C\c1ccco1`: the EC50 is greater than 200 µM and the half-maximal inhibitory concentration (IC50) came out at 110 µM.

With `COc1ccc(C(=O)Nc2ccc(S(=O)(=O)c3ccc(NC(=O)c4ccccc4SSc4ccccc4C(=O)Nc4ccc(S(=O)(=O)c5ccc(NC(=O)c6ccc(OC)cc6)cc5)cc4)cc3)cc2)cc1`, the EC50 was 16.6 µM and the concentration for half-maximal inhibition (IC50) was 151 µM.

Regarding `O=C(O)c1ccc(C(c2c(O)c3ccccc3oc2=O)c2c(O)c3ccccc3oc2=O)cc1`, the EC50 was greater than 200 µM and the IC50 was 191 µM.

`NC(N)=NS(=O)(=O)c1ccc(NC(=O)c2cccc3c(Nc4ccc(S(=O)(=O)N=C(N)N)cc4)c4ccccc4nc23)cc1`: the EC50 is greater than 29.5 µM and the 50% inhibitory concentration (IC50) came out at 22.4 µM.

For `Cc1ccccc1C1=C(C(=O)Nc2ccc(Cl)c(Cl)c2)NC(=S)NC1N` (configuration not stated), the EC50 is greater than 617 µM and the IC50 is greater than 617 µM.

For `COc1cc([N+](=O)[O-])c(S(=O)(=O)O)cc1-[n+]1nc(C(=O)Nc2ccccc2)nn1-c1ccc([N+](=O)[O-])c(S(=O)(=O)[O-])c1`, the EC50 was greater than 200 µM and the IC50 is greater than 200 µM.

As for `Cc1cn(C2CC(/[N+]([O-])=N/Nc3ccc([N+](=O)[O-])cc3)C(CO[Si](C)(C)C(C)(C)C)O2)c(=O)[nH]c1=O` (configuration not stated), the EC50 is greater than 200 µM and the IC50 came to 7.41 µM.

In the case of `Nc1nc(Cl)c(Cl)c(NCC2(O)CCC2)n1`, the EC50 was greater than 200 µM and the IC50 was found to be 20.9 µM.

On to `c1ccc2c3c([nH]c2c1)CCc1cncnc1-3`, for which the EC50 is greater than 200 µM and the IC50 amounted to 12 µM.

Regarding `O=c1[nH]c(=O)n(C2OC(CO)CC2F)cc1F` (configuration not stated), the EC50 is greater than 200 µM and the half-maximal inhibitory concentration (IC50) is greater than 200 µM.

For the compound `COc1cc(N(CCC#N)CCC#N)ccc1/C(N=Nc1ccc(C(=O)O)cc1)=N/NC(=O)c1cc(Br)ccc1O`, the EC50 is greater than 200 µM and the IC50 was 26.3 µM.

With `CCCCc1ccc(OC2OC(CO)C(O)C(O)C2O)cc1` (configuration not stated), the EC50 is greater than 288 µM.

Consider `O=C1c2ccccc2-c2nnc(-c3ccccc3)cc21`, for which the EC50 is greater than 100 µM and the IC50 was determined as 8.32 µM.

With `Cc1cc(NCCCCCCNc2cc(C)nc3ccc(N)cc23)c2cc(N)ccc2n1`, the IC50 was 10.7 µM and 72.4 µM.

Turning to `COc1ccc2c(c1O)C13CCN(C)C(C2)C1CCC1(C3)OCCO1` (configuration not stated), the EC50 is greater than 380 µM and the concentration for half-maximal inhibition (IC50) is 204 µM.

For `CC(C)NC1CCCCC2c3ccccc3C12O` (configuration not stated), the EC50 was 145 µM and the IC50 was greater than 200 µM.

For the compound `CC1(C)OC(=O)CC2(C)OC12` (configuration not stated), the EC50 was greater than 200 µM and the 50% inhibitory concentration (IC50) is greater than 200 µM.

Regarding `CC(C)c1nc2c(Cl)c3ncccc3cc2[nH]c1=O`, the EC50 was greater than 100 µM and the concentration for half-maximal inhibition (IC50) was 39.8 µM.

For the compound `COc1c(C)c(-c2c(C)c(OC)c3c(c2OC)OCO3)c(OC)c2c1OCO2`, the EC50 is greater than 200 µM and the IC50 was 170 µM.

For the compound `COc1c2occc2c(N)c2ccc(=O)oc12`, the EC50 is greater than 95.5 µM and the concentration for half-maximal inhibition (IC50) is greater than 95.5 µM.

As to `Cc1cc(=O)n2c(n1)Nc1ccc(Cl)cc1C2`, the EC50 was greater than 52.5 µM and the IC50 was greater than 52.5 µM.

`N#CCCN(c1ccc(-c2nnc(NC(=O)CNNC(=O)CC(=O)Nc3ccccc3)s2)cc1)S(=O)(=O)c1ccccc1`: the EC50 was greater than 41.7 µM and the IC50 is greater than 41.7 µM.

Regarding `COc1ccc([C@@]2(O)c3c(ccc(O)c3OC)[C@H]2OC)c(OC)c1`, the EC50 is greater than 15.8 µM and the IC50 is 9.33 µM.

On to `Nc1ccccc1SC(/C=C/NNC1=NC(c2ccccc2)C(c2ccccc2)=NN1)c1ccccc1` (configuration not stated), for which the EC50 was greater than 100 µM and the IC50 came out at 4.27 µM.

`CCC1=CC(OCc2ccccc2)C(CCN(Cc2ccccc2)C(=O)OCc2ccccc2)C1` (configuration not stated): the EC50 was greater than 200 µM and the IC50 was 9.55 µM.

In the case of `CN1c2c(nc(N)[nH]c2=O)NCC1CCNc1ccc(C(=O)NC(CCC(=O)O)C(=O)O)cc1` (configuration not stated), the EC50 is greater than 240 µM and the IC50 is 204 µM.

Regarding `O=C1OCCN1N1CCOC1=O`, the EC50 was greater than 200 µM and the half-maximal inhibitory concentration (IC50) is greater than 200 µM.

Turning to `Cc1cc2ccc3c(c2oc1=O)[C@@H](OC(=O)C12CCC(C)(C(=O)O1)C2(C)C)[C@@H](OC(=O)C12CCC(C)(C(=O)O1)C2(C)C)C(C)(C)O3` (some centres not stated), the EC50 was 0.209 µM and the concentration for half-maximal inhibition (IC50) is 18.6 µM.

Take `CCOC(=O)CCC(NC(=O)c1ccc(N=Cc2nc3cc(C(F)(F)F)ccc3nc2-c2ccccc2)cc1)C(=O)OCC` (configuration not stated): the EC50 was greater than 5.89 µM and the concentration for half-maximal inhibition (IC50) is greater than 5.89 µM.

Consider `NCCN1CCCCCc2ccccc21`, for which the EC50 was greater than 200 µM and the concentration for half-maximal inhibition (IC50) was 123 µM.

For the compound `NC(Cc1ccc(OCc2ccccc2)cc1)C(=O)NC(Cc1ccccc1)C(=O)ON1C(=O)CCC1=O` (configuration not stated) (H-Tyr(Bn)-Phe-OSu; configuration not given here), the outcome was inactive.

Consider `O=C1OCC23CCC4C1C42CC1(CC3)OCCO1` (configuration not stated), for which the EC50 was greater than 200 µM and the IC50 was greater than 200 µM.

Turning to `O=C(/C=C/c1ccc2c(c1)OCO2)c1ccccc1`, the EC50 is greater than 200 µM; the half-inhibitory concentration (IC50) is 7.08 µM and 11.2 µM.

In the case of `C#CCOCC12C=CC(O1)C1COC(=O)C12` (configuration not stated), the EC50 was greater than 200 µM and the concentration for half-maximal inhibition (IC50) is greater than 200 µM.

In the case of `CN1CN(c2ccccc2)C2(CCN(CCc3csc4ccccc34)CC2)C1=O`, the EC50 was greater than 200 µM and the half-inhibitory concentration (IC50) stood at 28.8 µM.

With `CC[n+]1c(-c2ccccc2)c2cc(N)ccc2c2ccc(N)cc21`, the EC50 is greater than 708 µM; the concentration for half-maximal inhibition (IC50) was 0.794 µM and 0.525 µM.

Turning to `CCN(CC)CCN1C(=O)c2cccc3c(N)c(OC)cc(c23)C1=O`, the EC50 was greater than 200 µM and the 50% inhibitory concentration (IC50) stood at 3.39 µM.

Turning to `CCN(CC)Cc1nc2sc3c(c2c(=O)n1-c1ccccc1)CCCC3`, the EC50 was greater than 200 µM and the IC50 was determined as 39.8 µM.

H-HSFNCGGEFFY-OH: the result was inactive.

Turning to `CC(=O)[C@@]1(c2ccccc2)N(C(=O)c2ccccc2)[C@@]1(C)C(=O)c1ccccc1`, the EC50 is greater than 646 µM and the half-inhibitory concentration (IC50) came to 562 µM.

In the case of `C=CCOCn1ccc(N)nc1=O`, the outcome was inactive.

Turning to `O=[N+]([O-])c1ccc(P2(=O)Nc3ccccc3N2)cc1`, the EC50 is greater than 245 µM and the IC50 stood at 70.8 µM.

As for `CC(=N\N)/C(C)=N/N=C(C)/C(C)=N/N=C(C)/C(C)=N/N`, the EC50 is greater than 200 µM and the concentration for half-maximal inhibition (IC50) amounted to 178 µM.

As to `N#Cc1c(NC(=O)C(F)(F)F)sc2c3c(=O)c4ccccc4c(=O)c=3oc3ccccc3c12`, the EC50 is greater than 100 µM and the IC50 was 17.4 µM.

`COc1ccc2c(c1O)C13CCN(C)C(C2)C12C=CC(=O)C3c1c(O)ccc(O)c12` (configuration not stated): the EC50 was greater than 200 µM and the half-inhibitory concentration (IC50) was found to be 2.95 µM.

On to `N#Cc1c(/C=C/c2ccccc2)c2c([nH]c1=S)CCCCC2`, for which the EC50 was 339 µM and the IC50 turned out to be 501 µM.

With `Cc1ccc2cc([N+](=O)[O-])c3ccc(C)nc3c2n1.Cc1ccc2cc([N+](=O)[O-])c3ccc(C)nc3c2n1.O=C1OC(C(O)C[O-])C(O)=C1O.[Cu+]`, the EC50 is greater than 12.6 µM and the IC50 came out at 1.82 µM.

Take `CC1(C)C(=O)C(=Cc2ccco2)C1=O`: the EC50 was greater than 100 µM and the IC50 is greater than 100 µM.

`Oc1cc(-c2ccccc2)cn2c1nc1ccccc12`: the EC50 is greater than 200 µM and the IC50 amounted to 1.07 µM.

In the case of `O=S1ON=C(C2CCC(C3=NOS(=O)O3)C2)O1` (configuration not stated), the EC50 is greater than 200 µM and the IC50 is greater than 200 µM.

As to `CC(=O)OC1C=CC(SC23CC4CC(CC(C4)C2)C3)N(C(C)=O)C1SC12CC3CC(CC(C3)C1)C2` (configuration not stated), the EC50 was greater than 200 µM and the concentration for half-maximal inhibition (IC50) was greater than 200 µM.

As for `CN1C2CC(=O)CC1[C@H](O)[C@@H]2O`, the EC50 was greater than 200 µM and the IC50 is greater than 200 µM.

As for `N#Cc1nc(COCc2ccccc2)oc1N`, the EC50 was greater than 200 µM and the IC50 was determined as 95.5 µM.

Regarding `CSc1nc(-c2ccccc2)nc(C(C#N)C#N)n1`, the result was inactive.

Consider `CCCCN(CCCC)C(=O)C(=O)C(C)C(=O)CC` (configuration not stated), for which the result was inactive.

On to `COc1ccc(P2(=S)Oc3ccc(C(c4ccccc4)(c4ccccc4)c4ccccc4)cc3O2)cc1` (configuration not stated), for which the result was inactive.

On to `Cc1ccc(S(=O)(=O)NNCNC(=O)c2ccccc2)cc1`, for which the outcome was inactive.
